Legend:
[1] = system: Caco-2 monolayer; test: Caco-2 assay (apparent permeability); format: in vitro ADME
Method: Caco-2 (Sigma-Aldrich, Diegem, Belgium) cells were grown in DMEM supplemented with 10% FBS, 1% NEAA and 1% penicillin/streptomycin solution. A total of 3 × 10^5 cells per filter were seeded in a 12-well plate and left for differentiation during 21–29 days (medium change every other day). Monolayer formation was checked by measuring the TEER values which should be above 0.30 kΩ × cm^2 [72]. After washing with Hank’s balanced salt solution, 400 µL of a 1 µM peptide solution was added to the apical side of the filter. After 30, 60, 90 and 120 min, 100 µL of the acceptor compartment was taken for UPLC-MS/MS analysis (Supplementary method S2). Linear curve fitting was used to calculate the apparent permeability coefficient (Papp), as sink conditions were achieved.
The reduction in acceptor concentration was also taken into account after every sampling. The cumulative amount in the acceptor compartment is defined as:2 Cumulativeamount=CrnVr+∑k=1n-1CrkVs with Crk = concentration at sample point k in acceptor compartment; Vr = volume in the receiver chamber; Vs = volume sampled; n = times sampled. […]
Supplementary method S2: UPLC-MS parameters Caco-2 assay
Aliquots of the acceptor compartment are analyzed using the following validated UPLC-
Column Acquity UPLC BEH C18 (2.1 × 100 mm, 1.7 µm) protected with a suitable guard
Sample temperature: 10°C.
A: 93/2/5 (v/v) H2O + ACN + DMSO + 0.1% FA
B: 2/93/5 (v/v) H2O + ACN + DMSO + 0.1% FA
Table 1: Quantifier of PapRIV.
Peptide Mother ion Daughter ion Collision energy MS
Injection volume: 10.0 µL
Table 2: Gradient program
Time (min) Mobile phase A (%) Mobile phase B (%)

[2] = system: BV-2 microglia cells; test: IL-6 and TNFα determination (ELISA); format: cell-based, murine; conditions: BV-2 cells, increasing concentrations, 20 h, ELISA of cell-free supernatant, n = 6
Method: BV-2 cells were a kind gift from Prof. Alba Minelli and were grown in RPMI medium supplemented with 10% fetal bovine serum (FBS) and 1% penicillin-streptromycin solution (Life Technologies, Belgium). The cells were cultured in culture flasks (Greiner, Belgium) in an incubator set at 37 °C and 5% CO2. When confluent, cells were detached using a cell scraper and diluted 1:20 approximately every 4 days. Experiments were performed in serum-free DMEM without phenol red.
To investigate the microglia activating properties of the peptide, IL-6 and TNFα levels were determined in cell-free supernatants of BV-2 microglia cells after treatment. BV-2 cells (2 × 10^5 cells/well) were seeded in 24-well plates and treated with peptide for 20 h. ELISA was performed according to the supplier’s protocol (eBioscience, Vienna, Austria). Briefly, after incubation with biotinylated detection antibody, avidin-HRP conjugate and subsequently chromogenic tetramethylbenzidine (TMB) substrate were added. Absorbance was measured at 450 nm and 570 nm using the Multiskan Ascent 354 microplate reader (Thermofisher, Waltham, USA). Concentrations were determined using the standard curve generated using known concentrations of TNFα and IL-6.

[3] = Multiple time regression (MTR) analysis, blood-to-brain influx; format: in vivo, ICR-CD-1 mice
Method: Briefly, 0.1 µmol of the lyophilized peptide was dissolved in 100 µL of phosphate buffer (pH 7.4, 25 mM). A Iodo-Gen coated tube (Thermo Scientific, Merelbeke, Belgium) was first of all rinsed with 1 mL of phosphate buffer. Subsequently, 50 µL of sodium iodide solution (1.1 µmol/mL) and 1 mCi of Na^125I solution (Perking Elmer, Zaventem, Belgium) were transferred into this Iodo-Gen coated tube. The oxidation reaction was allowed to proceed for six minutes at room temperature, after which the iodonium solution was transferred to 50 µL of peptide solution (1 mM). The iodination reaction of the peptide was allowed to proceed for another six minutes at room temperature. Finally, the iodinated peptide was purified using a silver filter (Thermo Scientific, Merelbeke, Belgium).
In order to determine whether the peptide could enter the brain, in vivo multiple time regression (MTR) analysis was performed. ICR-CD-1 mice were anesthetized intraperitoneally using a 40% urethane solution (3 g/kg). […] At specified time points after injection (i.e. 1, 3, 5, 10, 12.5 and 15 min, with start and end in duplicate), blood was obtained from the carotid artery followed by decapitation of the mouse. The isolated brain was weighed and radioactivity measured in a gamma counter for 5 min (Wallac Wizard automatic gamma counter, Perkin Elmer, Shelton, CT, USA), as well as from 50 µL serum, which was obtained by centrifuging the collected blood at 10,000g for 15 min at 21 °C. The linear and biphasic modeling of the multiple time regression analysis was performed as previously described.

[4] = system: BV-2 cells; test: Morphological analysis (ameboid versus branched cells); format: cell-based, murine; conditions: 20 h, n = 6
Method: We investigated the morphology since microglia change their morphology from a branched structure to a more round, ameboid structure after activation. BV-2 cells were seeded in 1 × 10^4 cells/well in a 24-well plate (360 µL); this way direct cell–cell contacts, which have an influence on morphology, are avoided. Four hours post-seeding, cells were treated with 40 µL peptide, placebo (H2O), medium or positive control (LPS 1 µg/mL). For the assessment of the morphology, one picture in the center of each well (100 × magnification) was taken after twenty hours with an Olympus CKX53 phase-contrast microscope equipped with an XC30 CCD camera (Olympus NV, Antwerp, Belgium). The number of branched and ameboid cells was counted with the cell counter plugin of ImageJ.

[5] = system: BV-2 cells; test: qPCR of IL-6 mRNA; format: cell-based, murine; conditions: 10 µM, n = 6, Mann–Whitney U test
Method: To confirm the observed ELISA results at mRNA level, a qPCR experiment was performed. After incubation of the BV-2 cells with PapRIV or controls, cells were lysed in RLT buffer (Qiagen, Hilden, Germany) supplemented with 1% β-mercaptoethanol. The lysate was stored at − 80 °C until RNA extraction. RNA was extracted using the RNeasy Mini Kit (Qiagen, Hilden, Germany). DNAse steps were included in the protocol to remove possible DNA contamination. RNA purity and concentration were assessed using spectrophotometry (NanoDrop), while RNA quality was evaluated using capillary electrophoresis (Fragment Analyzer). After extraction, the RNA was immediately converted to cDNA which was stored at − 20 °C until qPCR analysis. Ppia and Rer were chosen as suitable control genes based on the GeNorm and Normfinder algorithms[79],[80]. Used primers are given in Table 5. qPCR cycling was performed using a LightCycler 480 (Roche), with Cq values being calculated using the second derivative threshold method.

[6] = system: BV-2 microglia cells; test: MTT viability of BV-2 microglia cells; format: cell-based, murine

SDLPFEH [PapRIV, heptapeptide (SDLPFEH) quorum sensing peptide originating from the Bacillus cereus group; synthetic, purchased from GL Biochem]
Papp at 4 °C ([1]; Caco-2, 4 °C, compared with Papp at 37 °C, n = 6 (Supplementary Fig. S1)): comparable | Papp ([1]; Caco-2, apical to basolateral, 1 µM peptide (400 µL) after washing with Hank's balanced salt solution, cells differentiated 21–29 days, TEER above 0.30 kΩ × cm^2, acceptor sampled 30, 60, 90, 120 min, 37 °C, UPLC-MS/MS, linear fit, n = 6): 1.37 ± 0.21 × 10^–9 cm/s | Papp in the opposite basolateral-apical direction ([1]; Caco-2, basolateral to apical, compared with apical-basolateral Papp, n = 6 (Supplementary Fig. S1)): comparable | mass balance ([1]; Caco-2 assay, 1 µM, 120 min): < 2% | IL-6 production [2]: induced | TNFα production [2]: induced | K1 ([3]; 125I-labelled, i.v. (jugular vein), mice, 1–15 min, biphasic model, mean ± standard error): 6.95 ± 6.25 µL/g/min | initial brain influx rate (Ki) ([3]; 125I-labelled, i.v., mice, biphasic model): 6.95 µL/g/min | Tissue brain distribution volume, Vg ([3]; 125I-labelled, i.v., mice, biphasic model, mean ± standard error): 35.70 ± 61.73 µL/g | brain influx class according to the classification system of Stalmans et al. ([3]; classification by influx rate): very high brain influx | fraction of ameboid cells [4]: increased | IL-6 mRNA expression [5]: increased | viability of BV-2 microglia cells ([6]; 25 µM treatment, non-significant decrease): 94.8% | toxic effects towards BV-2 microglia cells ([6]; MTT, up to 25 µM): no significant toxic effects

— publication PMC8140105 (Scientific Reports, 2021)
